These results are taken from patent publication US10464896B2, “Efflux-pump inhibitors and therapeutic uses thereof” (Basilea Pharmaceutica International AG, priority 2015, dated 2019).

In the assay the test system is E. coli ATCC25922. Nature of the assay: Antibacterial activity in combination with minocycline (growth inhibition). The class given is cell-based. The conditions noted are these: Escherichia coli, minocycline 0.25 μg/mL, OD625 23 h minus 1 h, read-out: residual growth of E. coli ATCC25922 (% of uninhibited control) with minocycline; for activity at 25 µM: ATCC25922, compound at 25 μM; for activity at 50 µM: ATCC25922, compound at 50 μM. In short, it runs like this: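 Test compound combined with fixed subinhibitory partner antibiotic: linezolid 128 μg/mL for either strain, minocycline 0.25 μg/mL (E. coli) or 8 μg/mL (P. aeruginosa), in caMHB shaken at 37 °C. Residual growth as % of inhibitor-free control, from OD625 at 23 h minus 1 h.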

SMILES strings stand for the structures. A value given as a limit tells only on which side of the number the result lay.

In the case of `Clc1ccc(COCc2cccc(CNCC3CCNC3)c2)c(Br)c1` (stereo not drawn) [Example 174], the activity at 25 µM was at most 10%.

Consider `C=CCOc1cc(/C=C/c2nc(C3CC3)cs2)cc(CNCC2CNC2)c1` [Example 356], for which the activity at 25 µM is at most 10%.

Consider `CC(C)(C)c1ccc(COc2ccc(CNC3CCNCC3)cc2)cc1` [Example 59], for which the activity at 25 µM is at most 10%.

`Clc1ccc(CSc2ccc(CNCC3CNC3)cc2)c(Br)c1` [Example 133]: the activity at 25 µM was at most 10%.

Turning to `C=CCOc1cc(CNCC2CNC2)cc(CSc2ccc(Cl)cc2C(F)(F)F)c1` [Example 183], the activity at 25 µM is at most 10%.

Regarding `C=CCOc1cc(/C=C/c2cc(C#N)ccn2)cc(CNCC2CCNC2)c1` (stereo not drawn) [Example 329], the activity at 25 µM is at most 10%.

Consider `CC(C)(c1ccccc1)c1ccc(OCCCNCC2CNC2)cc1` [Example 29], for which the activity at 25 µM was at most 10%.

Regarding `C=CCOc1cc(/C=C/c2ccc(C#N)cc2C(F)(F)F)cc(CNCC2CNC2)c1` [Example 310], the activity at 25 µM was at most 10%.

Turning to `Clc1ccc(OCCOc2ccc(CNCC3CNC3)cc2)c(Br)c1` [Example 96], the activity at 25 µM is at most 10%.

With `C=CCOc1cc(/C=C/c2ccc(Cl)cc2Br)cc(CNCC2CNC2)c1` [Example 180], the activity at 25 µM is at most 10%.

On to `Fc1cc(Br)ccc1COc1ccc(CNC2CCNCC2)cc1` [Example 60], for which the activity at 25 µM was at most 10%.

As to `C=CCOc1cc(CNCC2CNC2)cc(CNC(=O)c2ccc(Cl)cc2Br)c1` [Example 376], the activity at 25 µM was at most 10%.

Take `O=C(NCc1cc(CNCC2CCNC2)cc(OCCc2c[nH]cn2)c1)c1ccc(Cl)cc1Br` (stereo not drawn) [Example 393]: the activity at 50 µM is at most 50%.

Turning to `C=CCOc1cc(/C=C/c2csc(C(C)C)n2)cc(CNCC2CCNC2)c1` (stereo not drawn) [Example 330], the activity at 25 µM is at most 10%.

Take `C=CCOc1cc(/C=C/c2ccc(C#N)c(C(F)(F)F)c2)cc(CNCC2CNC2)c1` [Example 299]: the activity at 25 µM is at most 10%.

For `C=CCOc1cc(CNCC2CNC2)cc(OCCc2ccccn2)c1` [Example 409], the activity at 50 µM is at most 50%.

Turning to `Clc1ccc(/C=C/c2cc(Cl)ccc2OCCNCC2CCNC2)c(Br)c1` (stereo not drawn) [Example 210], the activity at 25 µM was at most 10%.

Regarding `C=CCOc1cc(/C=C/c2cccnc2)cc(CNCC2CNC2)c1` [Example 335], the activity at 25 µM is at most 10%.

Regarding `Fc1cc(CNCC2CNC2)cc(OCc2ccc(Cl)cc2Br)c1` [Example 103], the activity at 25 µM was at most 10%.

With `CC(C)COc1cc(CNCC2CCNC2)cc(OCc2ccc(C(F)(F)F)cc2)c1` (stereo not drawn) [Example 264], the activity at 25 µM is at most 10%.

With `O=Cc1cc(CNCC2CNC2)cc(OCc2ccc(Cl)cc2Br)c1` [Example 127], the activity at 25 µM is at most 10%.

As to `C=CCOc1ccc(OCc2ccc(Br)cc2Cl)cc1CNCC1CNC1` [Example 406], the activity at 25 µM is at most 10%.

Regarding `Clc1ccc(-c2ccc(CNCC3CNC3)cc2)c(Br)c1` [Example 68, N-(azetidin-3-ylmethyl)-1-[4-(2-bromo-4-chloro-phenyl)phenyl]methanamine], the activity at 25 µM was at most 10%.

With `Clc1ccc(COc2cc(/C=C/c3ccco3)cc(CNCC3CNC3)c2)c(Br)c1` [Example 130, N-(azetidin-3-ylmethyl)-1-[3-[(2-bromo-4-chloro-phenyl)methoxy]-5-[(E)-2-(2-furyl)vinyl]phenyl]methanamine], the activity at 25 µM is at most 10%.

On to `c1ccc(-c2ccc(COc3cccc(CNCC4CNC4)c3)cc2)cc1` [Example 95], for which the activity at 25 µM was at most 10%.

As for `CC(C)COc1cc(CNCC2CCNC2)cc(OCc2ccc(F)cc2C(F)(F)F)c1` (stereo not drawn) [Example 280], the activity at 25 µM is at most 10%.

`Clc1ccc(OCc2cccc(CNCC3CNCCO3)c2)c(Br)c1` (stereo not drawn) [Example 65]: the activity at 25 µM was at most 10%.

In the case of `C=CCOc1cc(/C=C/c2ccc(C(F)(F)F)cc2C#N)cc(CNCC2CNC2)c1` [Example 311], the activity at 25 µM is at most 10%.

Turning to `Clc1ccc(CCc2cccc(CNCC3CNC3)c2)c(Br)c1` [Example 64, N-(azetidin-3-ylmethyl)-1-[3-[2-(2-bromo-4-chloro-phenyl)ethyl]phenyl]methanamine], the activity at 25 µM is at most 10%.

As for `C=CCOc1ccc(/C=C/c2ccc(Br)cc2Cl)cc1CNCC1CCNC1` (stereo not drawn) [Example 407], the activity at 25 µM was at most 10%.

`C=CCOc1cc(CNCC2CNC2)cc(CSc2ccc(Cl)cc2Br)c1` [Example 196]: the activity at 25 µM was at most 10%.

With `Clc1ccc(COc2ccc(OCCc3c[nH]cn3)c(CNCC3CCNC3)c2)c(Br)c1` (stereo not drawn) [Example 463], the activity at 25 µM was at most 10%.

In the case of `NCC1CCC(CNCc2cccc(/C=C/c3ccc(Cl)cc3Br)c2)N1` (stereo not drawn) [Example 191], the activity at 25 µM is at most 10%.

With `CC(C)(C)c1ccc(S(=O)(=O)NCc2cc(CNCC3CCNC3)cc(OCCc3c[nH]cn3)c2)cc1` (stereo not drawn) [Example 377], the activity at 25 µM was at most 10%.

For `Clc1ccc(/C=C/c2ccccc2OCCCNCC2CCNC2)c(Br)c1` (stereo not drawn) [Example 203], the activity at 25 µM is at most 10%.

As for `CC(C)COc1ccc(/C=C/c2ccc(Cl)cc2Br)cc1OCCCNCC1CNC1` [Example 513], the activity at 25 µM was at most 10%.

Turning to `Clc1ccc(/C=C/c2cc(CNCC3CNC3)cc(OCc3ccccc3)c2)c(Br)c1` [Example 198], the activity at 25 µM was at most 10%.

In the case of `CC(C)(C)c1ccc(COc2cc(CNCC3CNC3)cc(OCc3ccccc3)c2)cc1` [Example 297], the activity at 25 µM was at most 10%.

For `C[N+]1(C)CC(OCCOc2cc(CNCC3CNC3)cc(OCc3ccc(Cl)cc3Br)c2)CC1C(=O)O` (stereo not drawn) [Example 248], the activity at 25 µM was at most 10%.

On to `Clc1ccc(/C=C/c2cc(CNCC3CCNC3)cc(OCc3c[nH]cn3)c2)c(Br)c1` (stereo not drawn) [Example 344], for which the activity at 25 µM is at most 10%.

As to `CC(C)COc1cc(CNCC2CCNC2)cc(OCc2ccc(C(F)(F)F)cc2C(F)(F)F)c1` (stereo not drawn) [Example 265], the activity at 25 µM was at most 10%.

Regarding `CCOC(=O)/C=C/c1cc(CNCC2CNC2)cc(OCc2ccc(Cl)cc2Br)c1` [Example 129, Ethyl (E)-3-[3-[(azetidin-3-ylmethylamino)methyl]-5-[(2-bromo-4-chloro-phenyl)methoxy]phenyl]prop-2-enoate], the activity at 25 µM was at most 10%.

As to `CC(C)COc1cc(CNCC2CCNC2)cc(OCc2ccc(C(F)(F)F)cn2)c1` (stereo not drawn) [Example 289], the activity at 25 µM is at most 10%.

For the compound `Clc1cc(/C=C/c2ccc(Cl)cc2Br)cc(OCCCNCC2CNC2)c1` [Example 188], the activity at 25 µM is at most 10%.

`C=CCOc1cc(CNCC2CCNC2)cc(OCc2ccc(Cl)cc2Br)c1` (stereo not drawn) [Example 108]: the activity at 25 µM is at most 10%.

For the compound `Clc1ccc(/C=C/c2cccc(CCNCC3CNC3)c2)c(Br)c1` [Example 165, N-(azetidin-3-ylmethyl)-2-[3-[(E)-2-(2-bromo-4-chloro-phenyl)vinyl]phenyl]ethanamine], the activity at 25 µM was at most 10%.

Consider `Fc1ccc(COc2cccc(CNCC3CNC3)c2)c(F)c1` [Example 34], for which the activity at 25 µM was at most 10%.

Turning to `N#Cc1ccc(COc2ccc(CNCC3CNC3)cc2)c(Br)c1` [Example 85], the activity at 25 µM is at most 10%.

Take `C=CCOc1cc(/C=C/c2ccc(C(F)(F)F)cc2)cc(CNCC2CNC2)c1` [Example 275]: the activity at 25 µM was at most 10%.

As to `Clc1ccc(/C=C/c2ccccc2OCCCNCC2CNC2)c(Br)c1` [Example 200], the activity at 25 µM was at most 10%.

`Clc1ccc(/C=C/c2cc(Cl)ccc2OCCCNCC2CNC2)c(Br)c1` [Example 199]: the activity at 25 µM was at most 10%.

As to `C=CCOc1cc(/C=C/c2ccc(Cl)cc2Br)cc(C[N+](C)(C)CC2CNC2)c1` [Example 402], the activity at 25 µM is at most 10%.

Turning to `Clc1ccc(-c2ccc(CNCC3CCNC3)cc2)c(Br)c1` (stereo not drawn) [Example 62], the activity at 25 µM is at most 10%.

Turning to `CC(C)(C)c1ccc(COc2ccc(CNCC3CCNC3)cc2)cc1` (stereo not drawn) [Example 215], the activity at 25 µM was at most 10%.

As for `CC(C)(C)c1ccc(COc2cc(Cl)cc(CNC3CCNCC3)c2)cc1` [Example 226], the activity at 25 µM is at most 10%.

Turning to `N#Cc1ccc(/C=C/c2cccc(CNCC3CNC3)c2)c(C(F)(F)F)c1` [Example 312], the activity at 25 µM was at most 10%.

For the compound `C=CCOc1ccc(/C=C/c2ccc(Cl)cc2Br)cc1CNCC1CCNC1` (stereo not drawn) [Example 419], the activity at 25 µM was at most 10%.

In the case of `Clc1ccc(CNc2cccc(CNCC3CNC3)c2)c(Br)c1` [Example 158, 3-[(azetidin-3-ylmethylamino)methyl]-N-[(2-bromo-4-chloro-phenyl)methyl]aniline], the activity at 25 µM is at most 10%.

For `C=CCOc1cc(C[N+](C)(C)CC2CCNC2)cc(OCc2ccc(Cl)cc2Br)c1` (stereo not drawn) [Example 388], the activity at 25 µM was at most 10%.

Consider `CC(C)(C)c1ccc(/C=C\c2cccc(CNCC3CCNC3)c2)cc1` (stereo not drawn) [Example 236, 1-[3-[(Z)-2-(4-tert-butylphenyl)vinyl]phenyl]-N-(pyrrolidin-3-ylmethyl)methanamine], for which the activity at 25 µM was at most 10%.

`C=CCOc1cc(CNCC2CNC2)cc(C(=O)NCc2ccc(Cl)cc2Br)c1` [Example 370]: the activity at 25 µM was at most 10%.

As to `CC(C)(C)c1ccc(/C=C/c2cccc(CNCC3CCNC3)c2)cc1` (stereo not drawn) [Example 233], the activity at 25 µM was at most 10%.

`Brc1ccccc1COc1cccc(CNCC2CNC2)c1` [Example 41]: the activity at 25 µM was at most 10%.

As to `Clc1ccc(COc2cccc(CCNCC3CNC3)c2)c(Br)c1` [Example 121], the activity at 25 µM was at most 10%.

On to `O=C(O)c1ccc(COc2cc(CNCC3CCNC3)cc(OCc3ccc(Cl)cc3Br)c2)cc1` (stereo not drawn) [Example 205], for which the activity at 25 µM was at most 10%.

Consider `C=CCOc1cc(/C=C/c2ccc(C#N)cc2C(F)(F)F)cc(CNCC2CCNC2)c1` (stereo not drawn) [Example 313], for which the activity at 25 µM was at most 10%.
